In the test the test system is SC82 cells. Description: Bialaphos selection of SC82 suspension culture cells on filters. Type of test: cell-based, Zea mays. How it is done:
The suspension culture (designated SC82) used in the initial experiments (see Example 8) was derived from embryogenic Type-II callus of A188×B73. Following bombardment (see Example 8), cells on filters were resuspended in nonselective liquid medium, cultured for 1 to 2 weeks and transferred to filters overlaying solid medium containing 1 or 3 mg/l bialaphos. The degree of inhibition of tissue growth during selection was dependent upon the density of the cells on the filter and on the concentration of bialaphos used.
Using either selection protocol (1 or 3 mg/l bialaphos), resistant cell colonies emerged on the selection plates of SC82 bombarded with pDPG165 approximately 6 to 7 weeks after bombardment (FIG. 2A). Bialaphos-resistant calli were maintained and expanded on selection medium. Much of this tissue was embryogenic (FIG. 2B). […] These were controls which confirm the prediction that cells without the bar gene are not resistant to bialaphos.

The record followed here is patent US6803499B1, “Methods and compositions for the production of stably transformed, fertile monocot plants and cells thereof” (DeKalb Genetics Corporation, priority 1989, dated 2004).

`C[C@H](NC(=O)[C@H](C)NC(=O)[C@@H](N)CCP(C)(=O)O)C(=O)O` [bialaphos]: the “growth of cells cultured on bialaphos” value (SC82 cells, 0.5 PCV/filter, 1 mg/l bialaphos) is reported as 30-50 % of nonselected growth. The “growth of cells on the original selection filter” value (SC82 cells, 0.5 PCV/filter, 3 mg/l bialaphos) is given as ~10 % of nonselected growth. In addition, the “colony growth on selection plates” value (cells from untransformed suspension cultures, 1 or 3 mg/l bialaphos) is reported as “No colony growth”.
